Results from patent publication US20230135152A1 (ACURASTEM INCORPORATED, priority 2020, published 2023).

What was measured:
[1] = molecular target: T1, PIKFYVE (Homo sapiens, UniProt Q9Y2I7); assay: PIKFYVE assay (luciferase ADP-Glo kinase assay, Promega); assay type: biochemical
Summary of the method: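 Kinase activity measured with a luciferase-based ADP-Glo read-out, which quantifies ADP formed by the enzyme.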

[2] = molecular target: T1, PIKFYVE; assay: Cell-based Pikfyve inhibition activity assay (EEA1 staining, mean vesicle size in BJ fibroblast cells); details: Table 4, 4 hours treatment, 3 μM Apilimod = 100% inhibition
Description: BJ fibroblast cells were obtained from American Type Cell Culture (ATCC, CRL-2522). The cells were maintained in DMEM (Genesee Scientific, 25-500) supplemented with 10% fetal bovine serum (Genesee Scientific, 25-514) and 1% penicillin-streptomycin (Genesee Scientific, 25-512) at 37° C. in the atmosphere 5% CO2. BJ fibroblasts were plated into black flat clear bottom 96-well plates (Grenier, 655090) at a density of 3×10^3 per well and were allowed to attach in culture for 8-10 hours before drug treatment. Drugs were tested at eleven doses separated by 3 fold from 0.03 nM to 3000 nM in triplicates for 4 hours at 37° C. After 4 hours, treatment media was aspirated and replaced with 4% Paraformaldehyde (Electron Microscopy Science, 15714-S) and cells were fixed at room temperature for 5 minutes. 4% PFA in wells were then discarded and replaced with a blocking buffer consisting of 1×PBS with 0.1% Tween (Sigma-Aldrich, P1754-500), 5% Donkey Serum (Jackson ImmunoResearch, 017-000-121), and 1% BSA (Caisson Labs, B005-50GM) and incubated at room temperature for 30 minutes. Blocking buffer was then discarded and replaced with a primary EEA1 antibody (Fisher Scientific, BD610457) in a 1:1000 dilution and incubated at 4° C. overnight. Following overnight incubation, plates were washed with 1×PBS three times and incubated with secondary antibody Donkey anti-Mouse IgG, Alexa Fluor 555 (Invitrogen, A31570) (1:1000 dilution) for 1 hour at room temperature in the dark. Subsequently cell plates were washed with 1×PBS three times and can be stored at 4° C. if not being proceeding with imaging procedure.
Images were acquired with 20× objective (ImageXpress MicroConfocal, Molecular Devices) creating z-series of 5 planes (5 steps, […]), 16 tiles per well. Images were then analyzed using a custom CellProfiler protocol to obtain mean vesicle size. The mean vesicle size from 16 images was used as the output for each well. The mean vesicle size from 0.5% DMSO treated condition was considered as having no Pikfyve inhibition activity and the 3 μM Apilimod treated condition was considered as having 100% inhibition activity. The mean vesicle size was converted to % inhibition activity and the data was fitted to a dose-response curve using log(inhibitor) vs normalized response-variable slope using GraphPad Prism.

T1 sequence (Q9Y2I7 whole entry): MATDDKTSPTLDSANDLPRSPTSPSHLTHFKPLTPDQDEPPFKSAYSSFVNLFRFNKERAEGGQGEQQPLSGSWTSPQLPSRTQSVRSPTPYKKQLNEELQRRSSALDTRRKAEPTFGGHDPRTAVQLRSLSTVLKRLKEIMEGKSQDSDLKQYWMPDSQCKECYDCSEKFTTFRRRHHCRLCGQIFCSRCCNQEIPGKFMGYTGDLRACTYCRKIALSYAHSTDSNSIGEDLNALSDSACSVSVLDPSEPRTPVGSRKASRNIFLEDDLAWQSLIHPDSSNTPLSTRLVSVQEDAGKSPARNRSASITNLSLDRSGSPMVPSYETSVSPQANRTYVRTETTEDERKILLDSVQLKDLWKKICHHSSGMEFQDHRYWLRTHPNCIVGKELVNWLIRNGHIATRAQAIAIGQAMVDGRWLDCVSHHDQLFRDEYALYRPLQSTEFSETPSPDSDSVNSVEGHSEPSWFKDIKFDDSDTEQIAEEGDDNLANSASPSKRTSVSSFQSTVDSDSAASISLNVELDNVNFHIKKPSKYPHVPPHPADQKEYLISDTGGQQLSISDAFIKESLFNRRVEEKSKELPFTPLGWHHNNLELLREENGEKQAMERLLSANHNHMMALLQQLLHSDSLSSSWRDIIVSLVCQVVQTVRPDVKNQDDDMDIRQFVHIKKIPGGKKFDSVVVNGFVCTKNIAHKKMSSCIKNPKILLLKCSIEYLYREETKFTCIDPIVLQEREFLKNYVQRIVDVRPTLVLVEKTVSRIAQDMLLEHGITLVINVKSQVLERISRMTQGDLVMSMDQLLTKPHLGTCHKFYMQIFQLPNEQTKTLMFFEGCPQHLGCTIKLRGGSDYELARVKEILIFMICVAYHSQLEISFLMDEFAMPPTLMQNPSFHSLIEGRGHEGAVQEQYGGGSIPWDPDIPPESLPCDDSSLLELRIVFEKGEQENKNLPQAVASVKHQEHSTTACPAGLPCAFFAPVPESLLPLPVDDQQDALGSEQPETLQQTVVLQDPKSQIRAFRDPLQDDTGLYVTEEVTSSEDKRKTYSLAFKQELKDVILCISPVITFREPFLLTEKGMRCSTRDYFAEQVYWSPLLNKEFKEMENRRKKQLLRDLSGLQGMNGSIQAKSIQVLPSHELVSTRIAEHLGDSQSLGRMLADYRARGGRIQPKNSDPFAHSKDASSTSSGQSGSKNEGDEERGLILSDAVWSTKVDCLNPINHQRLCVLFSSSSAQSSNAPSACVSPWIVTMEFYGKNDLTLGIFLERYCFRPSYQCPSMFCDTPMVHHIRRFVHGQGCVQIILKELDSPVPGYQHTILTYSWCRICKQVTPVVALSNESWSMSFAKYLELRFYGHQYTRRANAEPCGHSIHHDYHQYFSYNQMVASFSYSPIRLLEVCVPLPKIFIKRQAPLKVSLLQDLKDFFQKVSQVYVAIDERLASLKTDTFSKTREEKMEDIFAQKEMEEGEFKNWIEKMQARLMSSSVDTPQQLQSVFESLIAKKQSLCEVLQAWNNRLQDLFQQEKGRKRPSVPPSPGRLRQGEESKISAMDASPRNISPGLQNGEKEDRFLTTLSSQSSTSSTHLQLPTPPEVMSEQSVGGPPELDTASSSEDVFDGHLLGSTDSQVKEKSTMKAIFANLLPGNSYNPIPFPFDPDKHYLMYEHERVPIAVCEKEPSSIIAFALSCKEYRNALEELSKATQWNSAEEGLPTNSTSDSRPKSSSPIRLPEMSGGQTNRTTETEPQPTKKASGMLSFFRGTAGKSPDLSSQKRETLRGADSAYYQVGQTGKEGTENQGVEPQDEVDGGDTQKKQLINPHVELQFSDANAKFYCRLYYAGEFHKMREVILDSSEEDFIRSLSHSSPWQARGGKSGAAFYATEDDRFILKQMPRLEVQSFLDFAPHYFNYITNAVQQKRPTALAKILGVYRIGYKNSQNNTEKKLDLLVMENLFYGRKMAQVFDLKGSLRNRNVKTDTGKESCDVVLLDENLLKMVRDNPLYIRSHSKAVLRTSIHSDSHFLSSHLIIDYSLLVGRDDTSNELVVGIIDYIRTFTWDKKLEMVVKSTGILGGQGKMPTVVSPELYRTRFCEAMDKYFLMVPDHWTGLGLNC

IC50 ([1]; Table 3)	EC50 [2]	IC50 ([1]; Table 2)	SMILES
< 3 nM	< 20 nM		Cc1cccc(-c2cc([C@@H](C)O)n(-c3cc(N4CCOCC4)nc(OCCc4cnn(C)c4)n3)n2)c1 (single isomer, unassigned) [Compound 314]
< 3 nM	< 20 nM		C[C@@H](O)c1cccc(-c2ccn(-c3cc(N4CCOCC4)nc(OCCc4cnn(C)c4)n3)n2)c1 (single isomer, unassigned) [Compound 315]
3 to 10 nM	20 to 100 nM		C[C@H](O)c1cccc(-c2ccn(-c3cc(N4CCOCC4)nc(OCCc4cnn(C)c4)n3)n2)c1 (single isomer, unassigned) [Compound 316]
< 3 nM	< 20 nM		CO[C@H](CO)c1nc(N2CCOCC2)cc(-n2ccc(-c3c[nH]c4ccccc34)n2)n1 (single isomer, unassigned) [Compound 318]
< 3 nM	< 20 nM		CO[C@@H](CO)c1nc(N2CCOCC2)cc(-n2ccc(-c3c[nH]c4ccccc34)n2)n1 (single isomer, unassigned) [Compound 319]
3 to 10 nM	20 to 100 nM		CO[C@H](CO)c1nc(N2CCOCC2)cc(-n2ccc(-c3cn(C)c4ccccc34)n2)n1 (single isomer, unassigned) [Compound 320]
3 to 10 nM	500 to 5000 nM		CO[C@@H](CO)c1nc(N2CCOCC2)cc(-n2ccc(-c3cn(C)c4ccccc34)n2)n1 (single isomer, unassigned) [Compound 321]
3 to 10 nM	500 to 5000 nM		CC[C@@H](OC)c1nc(N2CCOCC2)cc(-n2ccc(-c3cccc(C)c3)n2)n1 (single isomer, unassigned) [Compound 322]
10 to 100 nM	500 to 5000 nM		CC[C@H](OC)c1nc(N2CCOCC2)cc(-n2ccc(-c3cccc(C)c3)n2)n1 (single isomer, unassigned) [Compound 323]
10 to 100 nM	500 to 5000 nM		Cc1cccc(-c2ccn(-c3cc(N4CCOCC4)nc([C@@H]4COCCO4)n3)n2)c1 (single isomer, unassigned) [Compound 324]
10 to 100 nM	500 to 5000 nM		Cc1cccc(-c2ccn(-c3cc(N4CCOCC4)nc([C@H]4COCCO4)n3)n2)c1 (single isomer, unassigned) [Compound 325]
3 to 10 nM	500 to 5000 nM		Cc1cccc(-c2ccn(-c3cc(N4CCOCC4)nc([C@H]4CCCO4)n3)n2)c1 (single isomer, unassigned) [Compound 327]
3 to 10 nM	> 5000 nM		Cc1cccc(-c2ccn(-c3cc(N4CCOCC4)nc([C@@H]4CCCO4)n3)n2)c1 (single isomer, unassigned) [Compound 328]
3 to 10 nM	> 5000 nM		Cc1cccc(-c2ccn(-c3cc(N4CCOCC4)nc([C@H]4CCOC4)n3)n2)c1 (single isomer, unassigned) [Compound 329]
3 to 10 nM	> 5000 nM		Cc1cccc(-c2ccn(-c3cc(N4CCOCC4)nc([C@@H]4CCOC4)n3)n2)c1 (single isomer, unassigned) [Compound 330]
< 3 nM	< 20 nM		CO[C@@H](C)c1cccc(-c2ccn(-c3cc(N4CCOCC4)nc(OCCc4cnn(C)c4)n3)n2)c1 (single isomer, unassigned) [Compound 341]
< 3 nM	< 20 nM		Cc1cc(-c2c[nH]c3ccccc23)nn1-c1cc(N2CCOCC2)nc(C2COCCO2)n1 (single isomer, unassigned) [Compound 344]
< 3 nM	< 20 nM		Cc1cc(-c2c[nH]c3ccccc23)nn1-c1cc(N2CCOCC2)nc(C2COCCO2)n1 (single isomer, unassigned) [Compound 345]
	20 to 100 nM	< 5 nM	Cc1cccc(-c2ccn(-c3cc(N4CCOCC4)nc(OCCc4cnn(CCN(C)C)c4)n3)n2)c1 [Compound 74, N,N-dimethyl-2-(4-(2-((4-morpholino-6-(3-(m-tolyl)-1H-pyrazol-1-yl)pyrimidin-2-yl)oxy)ethyl)-1H-pyrazol-1-yl)ethan-1-amine]
	100 to 500 nM	5 to 100 nM	CN(C)Cc1cc(-c2ccccc2)nn1-c1cc(N2CCOCC2)nc(OCCc2cnn(C)c2)n1 [Compound 75, N,N-dimethyl-1-(1-(2-(2-(1-methyl-1H-pyrazol-4-yl)ethoxy)-6-morpholinopyrimidin-4-yl)-3-phenyl-1H-pyrazol-5-yl)methanamine]

Second part, the molecule before the results:

SMILES	IC50 ([1]; Table 3)	EC50 [2]	IC50 ([1]; Table 2)
Cc1cccc(-c2ccn(-c3cc(N4CCOCC4)nc(CCc4ncccn4)n3)n2)c1 [Compound 43]		20 to 100 nM	< 5 nM
COc1cccc(-c2ccn(-c3cc(N4CCOCC4)nc(N)n3)n2)c1 [Compound 44, 4-(3-(3-methoxyphenyl)-1H-pyrazol-1-yl)-6-morpholino-pyrimidin-2-amine]		100 to 500 nM	< 5 nM
Cc1cccc(-c2ccn(-c3cc(N4CCOCC4)nc(OCc4cccnn4)n3)n2)c1 [Compound 54, 4-(2-(pyridazin-3-ylmethoxy)-6-(3-(m-tolyl)-1H-pyrazol-1-yl)pyrimidin-4-yl)morpholine]		20 to 100 nM	< 5 nM
Cc1cccc(-c2ccn(-c3cc(N4CCOCC4)nc(OCCc4ccnn4C)n3)n2)c1 [Compound 55, 4-(2-(2-(1-methyl-1H-pyrazol-5-yl)ethoxy)-6-(3-(m-tolyl)-1H-pyrazol-1-yl)pyrimidin-4-yl)morpholine]		20 to 100 nM	< 5 nM
Cc1cccc(-c2ccn(-c3cc(N4CCOCC4)nc(OCCc4cnn(C)c4)n3)n2)c1 [Compound 56, 4-(2-(2-(1-methyl-1H-pyrazol-4-yl)ethoxy)-6-(3-(m-tolyl)-1H-pyrazol-1-yl)pyrimidin-4-yl)morpholine]		< 20 nM	< 5 nM
COc1nc(N2CCOCC2)cc(-n2ccc(-c3cccc(C)c3)n2)n1 [Compound 59, 4-(2-methoxy-6-(3-(m-tolyl)-1H-pyrazol-1-yl)pyrimidin-4-yl)morpholine]		20 to 100 nM	5 to 100 nM
Cc1cccc(-c2ccn(-c3cc(N4CCOCC4)ncn3)n2)c1 [Compound 60, 4-(6-(3-(m-tolyl)-1H-pyrazol-1-yl)pyrimidin-4-yl)morpholine]		500 to 5000 nM	101 to 1000 nM
Cc1cccc(-c2ccn(-c3cc(N4CCOCC4)nc(N4CCCC4=O)n3)n2)c1 [Compound 61, 1-(4-morpholino-6-(3-(m-tolyl)-1H-pyrazol-1-yl)pyrimidin-2-yl)pyrrolidin-2-one]		100 to 500 nM	5 to 100 nM
Cn1cc(CCOc2nc(N3CCOCC3)cc(-n3ccc(OCc4ccccc4)n3)n2)cn1 [Compound 62, 4-(6-(3-(benzyloxy)-1H-pyrazol-1-yl)-2-(2-(1-methyl-1H-pyrazol-4-yl)ethoxy)pyrimidin-4-yl)morpholine]		20 to 100 nM	< 5 nM
Cn1cc(CCOc2nc(N3CCOCC3)cc(-n3ccc(C(=O)Nc4ccccc4)n3)n2)cn1 [Compound 64, 1-(2-(2-(1-methyl-1H-pyrazol-4-yl)ethoxy)-6-morpholinopyrimidin-4-yl)-N-phenyl-1H-pyrazole-3-carboxamide]		20 to 100 nM	< 5 nM
CC(=O)Nc1nc(N2CCOCC2)cc(-n2ccc(-c3cccc(C)c3)n2)n1 [Compound 66, N-(4-morpholino-6-(3-(m-tolyl)-1H-pyrazol-1-yl)pyrimidin-2-yl)acetamide]		100 to 500 nM	< 5 nM
COC(Cc1ccnn1C)c1nc(N2CCOCC2)cc(-n2ccc(-c3ccccc3)n2)n1 (stereo not drawn) [Compound 68, 4-(2-(1-methoxy-2-(1-methyl-1H-pyrazol-5-yl)ethyl)-6-(3-phenyl-1H-pyrazol-1-yl)pyrimidin-4-yl)morpholine]		100 to 500 nM	< 5 nM
COCc1nc(N2CCOCC2)cc(-n2ccc(-c3ccccc3)n2)n1 [Compound 69]		500 to 5000 nM	5 to 100 nM
COC(=O)c1ccn(-c2cc(N3CCOCC3)nc(OCCc3cnn(C)c3)n2)n1 [Compound 70]		> 5000 nM	5 to 100 nM
Cn1cc(CCOc2nc(N3CCOCC3)cc(-n3ccc(-c4cccnc4)n3)n2)cn1 [Compound 71, 4-(2-(2-(1-methyl-1H-pyrazol-4-yl)ethoxy)-6-(3-(pyridin-3-yl)-1H-pyrazol-1-yl)pyrimidin-4-yl)morpholine]		500 to 5000 nM	< 5 nM
COC(CC#N)c1nc(N2CCOCC2)cc(-n2ccc(-c3cccc(C)c3)n2)n1 (stereo not drawn) [Compound 72, 3-methoxy-3-(4-morpholino-6-(3-(m-tolyl)-1H-pyrazol-1-yl)pyrimidin-2-yl)propanenitrile]		100 to 500 nM	< 5 nM
